Source: patent US9757391B2 (priority 2012, dated 2017)
Entries after “also recorded” stand apart in the source; their conditions may differ.

What was measured:
[1] = tested on: morphine tolerance; conditions: rats, cited from earlier work
[2] = tested on: morphine tolerance; conditions: in vivo; cited from earlier work
[3] = tested on: mouse; assay: General pharmacological screen: maximum tolerated dose, autonomic signs; assay type: in vivo; conditions: 300 mg/kg po
Method: (§1) A general pharmacological screen was performed on the neuroactive steroid alphadolone.

[4] = tested on: histotoxic hypoxia; assay type: in vivo; conditions: mouse, 100 mg/kg po; ≧50% indicates significant cerebral protection
[5] = tested on: mouse; assay: General pharmacological screen: depression of behaviour; assay type: in vivo; conditions: 300 mg/kg po
Method: as §1

[6] = tested on: morphine tolerant rats; conditions: cited from earlier work

## CN1CC[C@]23c4c5ccc(O)c4O[C@H]2[C@@H](O)C=C[C@H]3[C@H]1C5 [M-IR, morphine]
[1]; M-IR 6.25 mg/kg ip, after M-SR 125 mg/kg/day sc with vehicle emulsion, mean±SEM, P<0.001
  tail flick latency response to M-IR, after M-SR treatment: 20.3±4.8 % MPE
[1]; M-IR 6.25 mg/kg ip, before M-SR treatment, mean±SEM
  tail flick latency response to M-IR, pre treatment: 89.6±2.5 % MPE

## CC(=O)[C@H]1CC[C@H]2[C@@H]3CC[C@H]4C[C@H](O)CC[C@]4(C)[C@H]3CC[C@]12C [allopregnanolone]
[2]
  prevention of morphine tolerance: do prevent morphine tolerance

## C[C@]12CC[C@@H](O)C[C@@H]1CC[C@H]1[C@@H]3CC[C@H](C(=O)CO)[C@@]3(C)CC(=O)[C@@H]12 [alphadolone]
[3]
  maximum tolerated dose autonomic signs: body temperature: temperature elevation
[1]; alphadolone emulsion 250 mg/kg sc co-administered with M-SR
  occurrence of morphine tolerance (TFL): prevented the occurrence of morphine tolerance; also recorded: no significant tolerance occurred
[1]; alphadolone emulsion 250 mg/kg sc with M-SR
  sedation: did not cause sedation; also recorded: caused no sedation
[4]
  hypoxia KCN test result: result = 50; %
[5]
  depression of behaviour: no sedation

## C[C@]12CC[C@H](O)CC1=CC[C@@H]1[C@@H]2CC[C@]2(C)C(=O)CC[C@@H]12 [dehydrepiandrsterone]
[2]
  prevention of morphine tolerance: do prevent morphine tolerance

## CC(=O)[C@H]1CC[C@H]2[C@@H]3CC=C4C[C@@H](O)CC[C@]4(C)[C@H]3CC[C@]12C [pregnenolone]
[2]
  prevention of morphine tolerance: do prevent morphine tolerance

## etanercept
[6]
  microglia activation and proinflammatory cytokine production: inhibited
  morphine tolerance: reversed the morphine tolerance
